pEC50, pIC50: −log10 of the molar value. Read-outs that look alike come from different tables or passages of the source.
Legend:
[1] = target: T1, recombinant human CB1 receptor (Homo sapiens, UniProt P21554); assay: Cannabinoid Receptor-1 (CB1) Binding Assay
T1 construct: expressed in transfected cells; CB1-CHO cell suspension for cAMP
Method: Binding affinity determination is based on recombinant human CB1 receptor expressed in Chinese Hamster Ovary (CHO) cells (Felder et al, Mol. Pharmacol. 48: 443-450, 1995). Total assay volume is 250 μl (240 μl CB1 receptor membrane solution plus 5 μl test compound solution plus 5 μl [3H]CP-55940 solution). Final concentration of [3H]CP-55940 is 0.6 nM. Binding buffer contains 50 mM Tris-HCl, pH7.4, 2.5 mM EDTA, 5 mM MgCl2, 0.5 mg/mL fatty acid free bovine serum albumin and protease inhibitors (Cat#P8340, from Sigma). To initiate the binding reaction, 5 μl of radioligand solution is added, the mixture is incubated with gentle shaking on a shaker for 1.5 h at 30° C. The binding is terminated by using 96-well harvester and filtering through GF/C filter presoaked in 0.05% polyethylenimine. The bound radiolabel is quantitated using scintillation counter. Apparent binding affinities for various compounds are calculated from IC50 values (DeBlasi et al., Trends Pharmacol Sci 10: 227-229, 1989).

[2] = target: T2, recombinant human CB1 receptor expressed in CHO cells (Homo sapiens, UniProt P21554); assay: Cannabinoid Receptor-1 (CB1) Functional Activity Assay (cAMP); assay type: cell-based
T2 construct: expressed in transfected cells; CB1-CHO cell suspension for cAMP
T2 sequence (P21554 whole entry): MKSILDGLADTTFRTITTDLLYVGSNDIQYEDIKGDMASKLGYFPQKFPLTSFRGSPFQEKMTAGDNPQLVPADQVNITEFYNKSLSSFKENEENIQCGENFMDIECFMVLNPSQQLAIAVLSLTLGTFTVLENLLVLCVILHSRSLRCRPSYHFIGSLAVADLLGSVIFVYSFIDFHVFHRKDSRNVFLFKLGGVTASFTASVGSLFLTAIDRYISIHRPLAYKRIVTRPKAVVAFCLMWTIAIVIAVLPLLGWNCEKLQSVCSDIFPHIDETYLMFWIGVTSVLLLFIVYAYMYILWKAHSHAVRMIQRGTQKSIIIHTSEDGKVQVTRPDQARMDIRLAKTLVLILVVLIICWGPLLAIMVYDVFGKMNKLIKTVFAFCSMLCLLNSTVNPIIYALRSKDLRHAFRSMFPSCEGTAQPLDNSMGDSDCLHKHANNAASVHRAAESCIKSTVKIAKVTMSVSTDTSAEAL
Method: The functional activation of CB1 receptor is based on recombinant human CBI receptor expressed in CHO cells (Felder et al, Mol. Pharmacol. 48: 443-450, 1995). To determine the agonist activity or inverse agonist activity of any test compound, 50 ul of CB1-CHO cell suspension are mixed with test compound and 70 ul assay buffer containing 0.34 mM 3-isobutyl-1-methylxanthine and 5.1 uM of forskolin in 96-well plates. The assay buffer is comprised of Earle's Balanced Salt Solution supplemented with 5 mM MgCl2, 1 mM glutamine, 10 mM HEPES, and 1 mg/mL bovine serum albumin. The mixture is incubated at room temperature for 30 minutes, and terminated by adding 30 μl/well of 0.5M HCl. The total intracellular cAMP level is quantitated using the New England Nuclear Flashplate and cAMP radioimmunoassay kit.

[3] = recombinant human CB1 receptor in CHO cells, [3H]CP-55940 0.6 nM, read-out: CB1 binding IC50
[4] = CB1-CHO cells, forskolin, intracellular cAMP, read-out: CB1 function activity EC50

T1 sequence (P21554 whole entry): as above

pIC50 [1, 3] | pEC50 [2, 4] | SMILES | pIC50 [1] | pEC50 [2]
6.52 | 8.96 | O=C(CC1CC1)N1CCN(S(=O)(=O)c2cccc3ccccc23)CC1 [Example 17, 4-(cyclopropyl-acetyl)-1-(1-naphthylsulfonyl)piperazine] |  | 
8.22 | 9.15 | COC(=O)c1cc(C(F)(F)F)cc(S(=O)(=O)N2CCN(C(=O)Cc3ccc(C(F)(F)F)cc3)CC2)c1 [Example 125, 4-(4-trifluoromethylphenyl-acetyl)-1-((3-methoxycarbonyl-5-trifluoromethyl-phenyl)sulfonyl)piperazine] |  | 
 |  | O=C(C1CCCCC1)N1C2CCC1CN(S(=O)(=O)c1cccc3ccccc13)C2 [Example 114, 8-(cyclohexylcarbonyl)-3-(1-naphthylsulfonyl)-3,8-diazabicyclo[3.2.1]octane] | 5.50 | 7.82
5.49 | 7.42 | O=C(c1ccccc1)N1CCN(S(=O)(=O)c2cc(C(F)(F)F)cc(C(F)(F)F)c2)CC1 [Example 89, 4-benzoyl-1-((3,5-bis(trifluoromethyl)phenyl)sulfonyl)piperazine] |  | 
5.42 | 7.98 | O=C(N1CCCCC1)N1CCN(S(=O)(=O)c2cccc3ccccc23)CC1 [Example 83, 4-(piperidin-1-yl-carbonyl)-1-(1-naphthylsulfonyl) piperazine] |  | 

SMILES | pIC50 [1, 3] | pEC50 [2, 4] | pIC50 [1] | pEC50 [2]
O=C(C1CCCCC1)N1CCN(S(=O)(=O)c2cc(Cl)cc(Cl)c2)CC1 [Example 101, 4-(cyclohexyl-carbonyl)-1-((3,5-dichlorophenyl)sulfonyl)piperazine] | 6.38 | 9.39 |  | 
O=C(Cc1ccc(C(F)(F)F)cc1)N1CCN(S(=O)(=O)c2cc(C3CC3)cc(C(F)(F)F)c2)CC1 [Example 123, 4-(4-trifluoromethylphenyl-acetyl)-1-((3-cyclopropyl-5-trifluoromethyl-phenyl)sulfonyl)piperazine] |  | 8.96 | 8.91 | 
O=C(C1CCCCC1)N1CCN(S(=O)(=O)c2cc(C(F)(F)F)cc(C(F)(F)F)c2)CC1 [Example 132, 4-(cyclohexyl-carbonyl)-1-((3,5-bis(trifluoromethyl)phenyl)sulfonyl)piperazine] | 6.58 |  |  | 8.97
